Measured values reported in ChEMBL document CHEMBL4184195, “Influence of hydrocarbon-stapling on membrane interactions of synthetic antimicrobial peptides” (Bioorg Med Chem, 2018).
Converted amounts (≈) assume the structure as drawn. The source made the active and inactive calls. The rule behind the calls is not given here. Bridge positions count the residues as written; N and C are the ends. Square brackets hold non-standard residues; d marks the D form. Peptide text beside a SMILES is read from it. S5 = C=CCCC[C@](C)(N)C(=O)O

Legend:
Erythrocyte = assay: Hemolytic activity in human RBC after 1 hr; type: ADME, cell-based
Lipid bilayer [1] = assay: Binding affinity to Escherichia coli large unilamellar vesicles assessed as reduction in blue shift at 10 uM by tryptophan fluorescence-based fluorometry
Lipid bilayer [2] = assay: Binding affinity to POPC liposome membranes assessed as reduction in blue shift at 10 uM by tryptophan fluorescence-based fluorometry
Escherichia coli [3] = assay: Time dependent inhibition of Escherichia coli BL21 at 8 uM; type: functional, organism-based
[4] = Therapeutic index, ratio of MHC for human RBC to MIC for Escherichia coli BL21; type: toxicity; details: read-out: TI
Escherichia coli [5] = assay: Antibacterial activity against Escherichia coli BL21 after 20 hrs by two fold serial dilution method; type: functional; details: BL21, 20 h
[6] = Binding affinity to SDS detergent micelles assessed as reduction in blue shift at 10 uM by tryptophan fluorescence-based fluorometry
Escherichia coli [7] = assay: Growth inhibition of Escherichia coli BL21 at 2 uM after 2 hrs relative to 6K-F17; type: functional; details: for inhibition of growth at 2 µM: BL21, BL21, 2 h, read-out: GI
[8] = Hemolytic activity in human RBC at 4 uM after 1 hr; type: ADME, cell-based, Erythrocyte; details: red blood cells (erythrocytes), read-out: Activity
Escherichia coli [9] = assay: Time dependent inhibition of Escherichia coli BL21 at 2 uM; type: functional, organism-based
Escherichia coli [10] = assay: Time dependent inhibition of Escherichia coli BL21 at 4 uM; type: functional, organism-based
Lipid bilayer [11] = assay: Binding affinity to POPC liposome membranes assessed as change in spectral lineshape by 31P solid-state NMR spectroscopic analysis
Lipid bilayer [12] = assay: Binding affinity to Escherichia coli large unilamellar vesicles assessed as change in spectral line shape by 31P solid-state NMR spectroscopic analysis

Compound | MHC (Erythrocyte) [µM] | Activity (Lipid bilayer [1]) | Activity (Lipid bilayer [2]) | inhibition (Escherichia coli [3]) | selectivity ratio [4] | MIC (Escherichia coli [5]) [µM] | Activity [6] | inhibition of growth at 2 µM (Escherichia coli [7]) [%] | hemolysis at 1 h, 4 µM [8] [%] | inhibition (Escherichia coli [9]) | inhibition (Escherichia coli [10]) | Activity (Lipid bilayer [11]) | Activity (Lipid bilayer [12]) | growth inhibition (GI) (Escherichia coli [7])
C[C@H](NC(=O)CNC(=O)[C@H](Cc1ccccc1)NC(=O)[C@]1(C)CCC/C=C\CCC[C@](C)(NC(=O)[C@H](Cc2ccccc2)NC(=O)CNC(=O)[C@H](C)NC(=O)[C@H](CCCCN)NC(=O)[C@H](CCCCN)NC(=O)[C@H](CCCCN)NC(=O)[C@H](CCCCN)NC(=O)[C@H](CCCCN)NC(=O)[C@@H](N)CCCCN)C(=O)N[C@@H](C)C(=O)N[C@@H](Cc2c[nH]c3ccccc23)C(=O)NCC(=O)N1)C(N)=O (H-KKKKKKAGF[S5]AWG[S5]FGA-NH2; staple (Z) 10-14) | 128 | Active | inactive | Active | 30.8 | 4.2 (≈ 7.99 µg/mL) | Active | ≤ 40 |  |  |  |  |  | 
C[C@H](NC(=O)[C@H](C)NC(=O)[C@H](Cc1ccccc1)NC(=O)[C@]1(C)CCC/C=C\CCC[C@](C)(NC(=O)[C@H](Cc2ccccc2)NC(=O)[C@H](C)NC(=O)[C@H](C)NC(=O)[C@H](CCCCN)NC(=O)[C@H](CCCCN)NC(=O)[C@H](CCCCN)NC(=O)[C@H](CCCCN)NC(=O)[C@H](CCCCN)NC(=O)[C@@H](N)CCCCN)C(=O)N[C@@H](C)C(=O)N[C@@H](Cc2c[nH]c3ccccc23)C(=O)N[C@@H](C)C(=O)N1)C(N)=O (H-KKKKKKAAF[S5]AWA[S5]FAA-NH2; staple (Z) 10-14) | 3.8 | inactive | inactive |  | 3.8 | 1 (≈ 1.94 µg/mL) | Active | ≤ 40 | 2 | Active |  |  |  | 
C[C@H](NC(=O)CNC(=O)[C@H](Cc1ccccc1)NC(=O)[C@]1(C)CCC/C=C\CCC[C@](C)(NC(=O)[C@H](Cc2ccccc2)NC(=O)CNC(=O)[C@H](C)NC(=O)[C@H](CCCCN)NC(=O)[C@H](CCCCN)NC(=O)[C@H](CCCCN)NC(=O)[C@H](CCCCN)NC(=O)[C@H](CCCCN)NC(=O)[C@@H](N)CCCCN)C(=O)N[C@@H](C)C(=O)N[C@@H](Cc2c[nH]c3ccccc23)C(=O)N[C@@H](C)C(=O)N1)C(N)=O (H-KKKKKKAGF[S5]AWA[S5]FGA-NH2; staple (Z) 10-14) | 15 | Active | inactive |  | 9.4 | 1.6 (≈ 3.06 µg/mL) | Active | ≤ 40 |  |  | Active |  |  | 
C[C@H](NC(=O)CNC(=O)[C@H](Cc1ccccc1)NC(=O)[C@]1(C)CCC/C=C\CCC[C@](C)(NC(=O)[C@H](Cc2ccccc2)NC(=O)CNC(=O)[C@H](CC(N)=O)NC(=O)[C@H](CCCCN)NC(=O)[C@H](CCCCN)NC(=O)[C@H](CCCCN)NC(=O)[C@H](CCCCN)NC(=O)[C@H](CCCCN)NC(=O)[C@@H](N)CCCCN)C(=O)N[C@@H](C)C(=O)N[C@@H](Cc2c[nH]c3ccccc23)C(=O)NCC(=O)N1)C(N)=O (H-KKKKKKNGF[S5]AWG[S5]FGA-NH2; staple (Z) 10-14) | 587 | Active | inactive | Active | 140 | 4.2 (≈ 8.17 µg/mL) | inactive | ≤ 40 |  |  |  | inactive | Active | 
H-KKKKKKAAFAAWAAFAA-NH2 | 320 | Active | inactive |  | 200 | 1.6 | Active |  |  |  | Active | Active | Active | Active
